Laboratory results taken from patent US9676789B2, “Aminated derivative of homoharringtonine, preparation method therefor, and application thereof” (HANGZHOU BENSHENG PHARMACEUTICAL CO., LTD., priority 2011, dated 2017).

How the values were obtained:
[1] = test system: K562/adr, NB4, Kasumi-1 and H9; assay: Anti-leukemia activity, summary over cell lines; assay type: cell-based, human; settings: result in words, summary of Table 1
Excerpt: Leukemia cell lines: K562/adr (drug-resistant, chronic myeloid leukemia, CML), NB4 (acute promyelocytic leukemia, AML), Kasumi-1 (acute myeloid leukemia M2 type, AML-M2), Jurkat (acute lymphoblastic leukemia, ALL), all of which are donated by Cancer Research Institute of Zhejiang University, China; and H9 (acute lymphoblastic leukemia, ALL), which is purchased from China Center for Type Culture Collection.
Obtaining 6000 well-growing leukemia cells and inoculating them into wells of a 96-well cell culture plate. The culture medium is the 1640 cell culture medium containing 10% fetal bovine serum. After adding the homoharringtonine derivatives of different concentrations and mixing uniformly, placing the plate in a carbon dioxide cell incubator (5% CO2) at 37° C. and incubating for 72 hours. Then the viable cell concentration is determined by the MTT method. In this experiment, the cell viability in control group (not treated with any compound) is set as 100%.

[2] = test system: RPMI8226 (multiple myeloma); assay: MTT multiple myeloma cell growth inhibition, 72 h; assay type: cell-based, human
How it was run: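 Viability determined by MTT after 72 h of compound exposure at 37° C under 5% CO2. Myeloma RPMI8226 cells were seeded at 6000 per well in 1640 medium containing 10% fetal bovine serum.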

[3] = test system: Huh7 (human liver cancer cell); assay: MTT solid tumor cell growth inhibition, 72 h; assay type: cell-based; settings: Huh7, 72 h
How it was run: (§1)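 Steps: seed 4000 cells per well in 10% FBS DMEM high glucose; incubate 24 h at 37° C under 5% CO2; add homoharringtonine derivatives at several concentrations; incubate 72 h; determine viable cells by MTT and calculate % viability versus untreated control.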

[4] = test system: RKO (human colon adenocarcinoma cell); assay: MTT solid tumor cell growth inhibition, 72 h; assay type: cell-based
How it was run: as §1

A549 (human lung cancer) = assay: MTT solid tumor cell growth inhibition, 72 h; assay type: cell-based; settings: A549, 72 h
How it was run: as §1

[5] = test system: Becap37 (human breast cancer cell); assay: MTT solid tumor cell growth inhibition, 72 h; assay type: cell-based; settings: Becap37, 72 h
How it was run: as §1

[6] = test system: Hep-2 (human hepatocellular carcinoma); assay: MTT solid tumor cell growth inhibition, 72 h; assay type: cell-based; settings: Hep2, 72 h
How it was run: as §1

[7] = test system: Hela (human cervical cancer cell); assay: MTT solid tumor cell growth inhibition, 72 h; assay type: cell-based; settings: Hela
How it was run: as §1

[8] = test system: MGC 803 (human gastric cancer cell); assay: MTT solid tumor cell growth inhibition, 72 h; assay type: cell-based; settings: MGC 803, 72 h
How it was run: as §1

[9] = test system: Jurkat (acute lymphoblastic leukemia, ALL); assay: MTT leukemia cell growth inhibition, 72 h; assay type: cell-based, human
How it was run: (§2)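 Seed 6000 cells/well; 1640 + 10% FBS; add derivative at various concentrations, mix; 72 h, 37 °C, 5% CO2; MTT read; untreated = 100%.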

[10] = test system: H9 (acute lymphoblastic leukemia, ALL); assay: MTT leukemia cell growth inhibition, 72 h; assay type: cell-based, human; settings: H9, 72 h
How it was run: as §2

[11] = test system: Kasumi-1 (acute myeloid leukemia M2 type, AML-M2); assay: MTT leukemia cell growth inhibition, 72 h; assay type: cell-based, human; settings: Kasumi-1, 72 h
How it was run: as §2

[12] = test system: NB4 (acute promyelocytic leukemia, AML); assay: MTT leukemia cell growth inhibition, 72 h; assay type: cell-based, human; settings: NB4, 72 h
How it was run: as §2

[13] = test system: K562/adr (drug-resistant, chronic myeloid leukemia, CML); assay: MTT leukemia cell growth inhibition, 72 h; assay type: cell-based, human; settings: K562/adr
How it was run: as §2

[14] = test system: U87 MG (malignant glioma cell); assay: MTT solid tumor cell growth inhibition, 72 h; assay type: cell-based, human
How it was run: as §1

[15] = test system: SK-OV-3 (ovarian cancer cell); assay: MTT solid tumor cell growth inhibition, 72 h; assay type: cell-based, human; settings: SK-OV-3, 72 h
How it was run: as §1

[16] = test system: CaES-17 (esophageal cancer cell); assay: MTT solid tumor cell growth inhibition, 72 h; assay type: cell-based, human; settings: CaES-17, 72 h
How it was run: as §1

PC-3 (prostate cancer) = assay: MTT solid tumor cell growth inhibition, 72 h; assay type: cell-based, human; settings: PC-3, 72 h
How it was run: as §1

MG63 (osteosarcoma) = assay: MTT solid tumor cell growth inhibition, 72 h; assay type: cell-based, human; settings: MG 63, 72 h
How it was run: as §1

[17] = test system: PANC-1 (pancreatic cancer); assay: MTT solid tumor cell growth inhibition, 72 h; assay type: cell-based, human; settings: PANC-1, 72 h
How it was run: as §1

[18] = test system: CNE (nasopharyngeal carcinoma cell); assay: MTT solid tumor cell growth inhibition, 72 h; assay type: cell-based, human
How it was run: as §1

[19] = test system: A549, PANC-1, Becap37, MG63, Huh7, RKO, Hela, CaES-17, CNE, Hep-2, PC-3 and SK-OV-3; assay: Anti-human solid tumor effect, summary over cell lines; assay type: cell-based; settings: result in words, summary of Table 2
Method: Human solid tumor cell lines: Hep-2 ([…]), A549 (human lung cancer), CaES-17 (esophageal cancer cell), PC-3 (prostate cancer), CNE (nasopharyngeal carcinoma cell), and SK-OV-3 (ovarian cancer cell), all of which are purchased from China Center For Type Culture Collection; RKO (human colon adenocarcinoma cell), MGC 803 (human gastric cancer cell), MG63 (osteosarcoma) and U87 MG (malignant glioma cell), all of which are purchased from Fuxiang Bio-tech Co. Ltd., Shanghai, China; PANC-1 (pancreatic cancer), Huh7 (human liver cancer cell), Becap37 (human breast cancer cell), and Hela (human cervical cancer cell), all of which are donated by Cancer Research Institute of Zhejiang University, China.
Obtaining 4000 well-growing human solid tumor cells and inoculating them into wells of a 96-well cell culture plate. The culture medium is DMEM High Glucose cell culture medium containing 10% fetal bovine serum. The plate is placed in a carbon dioxide cell incubator (5% CO2) at 37° C. and incubating for 24 hours. After adding the homoharringtonine derivatives of different concentration and mixing uniformly, the plate is placed in a carbon dioxide cell incubator (5% CO2) at 37° C. and incubating for 72 hours. Then the viable cell concentration is determined by the MTT method and the cell viability (%) after drug treatment is calculated. In this experiment, the cell viability of control group (not treated with any compound) is set as 100%.

“O-3-[(2R)-2,6-dihydroxy-2-(2′-pyrrolyl-2′-oxoethyl)-6-methylheptanoyl]cephalotaxine [BS-HH-012]” was tested, and the “anti-K562/adr, anti-NB4, anti-Kasumi-1 and anti-H9 activity” value [1] was “strong”, the IC50 ([2]; RPMI8226, 72 h) was 0.057 µg/mL and the IC90 ([2]; RPMI8226, 72 h) was 0.36 µg/mL. For the same substance, the “anti-RPMI8226 (multiple myeloma) effect” value ([2]; result in words, summary of Table 2) was “strong”, the IC50 [3] was 0.2 µg/mL and the IC90 [3] was greater than 16 µg/mL. The IC50 [4] was 0.11 µg/mL, the IC90 [4] was 0.43 µg/mL and the IC50 (A549 (human lung cancer)) was 0.45 µg/mL. For the same substance, the IC90 (A549 (human lung cancer)) was greater than 16 µg/mL, the IC50 [5] was 0.26 µg/mL and the IC90 [5] was 16 µg/mL. For the same substance, the IC50 [6] was 0.15 µg/mL, the IC90 [6] was greater than 16 µg/mL and the IC50 [7] was 0.35 µg/mL. For the same substance, the IC90 [7] was greater than 16 µg/mL, the IC50 [8] was 0.24 µg/mL and the IC90 [8] was 6.84 µg/mL. For the same substance, the IC50 [9] was 0.058 µg/mL, the IC90 [9] was 16 µg/mL and the IC50 [10] was 0.27 µg/mL. For the same substance, the IC90 [10] was 3.49 µg/mL, the IC50 [11] was 0.038 µg/mL and the IC90 [11] was 0.14 µg/mL. The IC50 [12] was 0.08 µg/mL, the IC90 [12] was 0.23 µg/mL and the IC50 [13] was 0.65 µg/mL. For the same substance, the IC90 [13] was 9.87 µg/mL, the IC50 [14] was 0.24 µg/mL and the IC90 [14] was 1.13 µg/mL. For the same substance, the IC50 [15] was 0.41 µg/mL, the IC90 [15] was greater than 16 µg/mL and the IC50 [16] was 0.43 µg/mL. The IC90 [16] was greater than 16 µg/mL, the IC50 (PC-3 (prostate cancer)) was 0.32 µg/mL and the IC90 (PC-3 (prostate cancer)) was greater than 16 µg/mL. The IC50 (MG63 (osteosarcoma)) was 0.18 µg/mL, the IC90 (MG63 (osteosarcoma)) was greater than 16 µg/mL and the IC50 [17] was 0.26 µg/mL. For the same substance, the IC90 [17] was greater than 16 µg/mL, the IC50 [18] was 0.13 µg/mL and the IC90 [18] was greater than 16 µg/mL. For the same substance, the “anti-A549, anti-PANC-1, anti-Becap37, anti-MG63, anti-Huh7, anti-RKO, anti-Hela, anti-CaES-17, anti-CNE, anti-Hep-2, anti-PC-3 and anti-SK-OV-3 effect” value [19] was “strong”.
